# Source: paper PMC10412597, “Small molecule branched-chain ketoacid dehydrogenase kinase (BDK) inhibitors with opposing effects on BDK protein levels” (Nature Communications, 2023)
# Key:
# Parameters in all cases: Invitrogen kinase panel, per cent inhibition of kinase activity
# Conditions in all cases: 10 µM, inhibitor
# [1] = biological target: MARK3 (Homo sapiens, UniProt P27448)
# Experimental: (§1) To discover a potent and selective BDK inhibitor, a subset of the Pfizer compound collection was screened. […] Off target activity was assessed in both CEREP and kinase panels (Supplementary Tables 2, 3).
# [2] = biological target: ABL1 (Homo sapiens, UniProt P00519)
# Experimental: as §1
# [3] = biological target: MKNK1 (Homo sapiens, UniProt Q9BUB5)
# Experimental: as §1
# [4] = biological target: T1, IkB kinase beta subunit (IKK BETA) (Homo sapiens, UniProt O14920)
# T1 construct: gene IKBKB
# Experimental: as §1
# [5] = biological target: T2, MEK1 (Homo sapiens, UniProt Q02750)
# T2 construct: gene MAP2K1
# Experimental: as §1
# [6] = biological target: T3, PDPK1 (Homo sapiens, UniProt O15530)
# T3 sequence (O15530 1-556): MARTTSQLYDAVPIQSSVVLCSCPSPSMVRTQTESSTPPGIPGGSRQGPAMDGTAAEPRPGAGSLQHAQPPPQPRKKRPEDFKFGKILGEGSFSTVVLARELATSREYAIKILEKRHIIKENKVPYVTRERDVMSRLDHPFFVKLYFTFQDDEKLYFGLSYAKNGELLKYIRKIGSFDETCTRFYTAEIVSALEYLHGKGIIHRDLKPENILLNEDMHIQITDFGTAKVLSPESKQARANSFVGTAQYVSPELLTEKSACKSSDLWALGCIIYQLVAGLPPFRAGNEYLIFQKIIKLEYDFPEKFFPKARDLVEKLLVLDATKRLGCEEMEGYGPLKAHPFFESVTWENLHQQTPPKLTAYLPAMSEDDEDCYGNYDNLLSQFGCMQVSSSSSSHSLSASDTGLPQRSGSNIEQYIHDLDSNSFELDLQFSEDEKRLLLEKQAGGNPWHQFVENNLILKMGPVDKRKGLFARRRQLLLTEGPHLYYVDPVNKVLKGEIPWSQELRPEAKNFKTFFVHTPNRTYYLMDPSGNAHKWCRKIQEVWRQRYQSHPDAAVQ
# Experimental: as §1
# [7] = biological target: T4, JAK3 (Homo sapiens, UniProt P52333)
# T4 sequence (P52333 1-1124): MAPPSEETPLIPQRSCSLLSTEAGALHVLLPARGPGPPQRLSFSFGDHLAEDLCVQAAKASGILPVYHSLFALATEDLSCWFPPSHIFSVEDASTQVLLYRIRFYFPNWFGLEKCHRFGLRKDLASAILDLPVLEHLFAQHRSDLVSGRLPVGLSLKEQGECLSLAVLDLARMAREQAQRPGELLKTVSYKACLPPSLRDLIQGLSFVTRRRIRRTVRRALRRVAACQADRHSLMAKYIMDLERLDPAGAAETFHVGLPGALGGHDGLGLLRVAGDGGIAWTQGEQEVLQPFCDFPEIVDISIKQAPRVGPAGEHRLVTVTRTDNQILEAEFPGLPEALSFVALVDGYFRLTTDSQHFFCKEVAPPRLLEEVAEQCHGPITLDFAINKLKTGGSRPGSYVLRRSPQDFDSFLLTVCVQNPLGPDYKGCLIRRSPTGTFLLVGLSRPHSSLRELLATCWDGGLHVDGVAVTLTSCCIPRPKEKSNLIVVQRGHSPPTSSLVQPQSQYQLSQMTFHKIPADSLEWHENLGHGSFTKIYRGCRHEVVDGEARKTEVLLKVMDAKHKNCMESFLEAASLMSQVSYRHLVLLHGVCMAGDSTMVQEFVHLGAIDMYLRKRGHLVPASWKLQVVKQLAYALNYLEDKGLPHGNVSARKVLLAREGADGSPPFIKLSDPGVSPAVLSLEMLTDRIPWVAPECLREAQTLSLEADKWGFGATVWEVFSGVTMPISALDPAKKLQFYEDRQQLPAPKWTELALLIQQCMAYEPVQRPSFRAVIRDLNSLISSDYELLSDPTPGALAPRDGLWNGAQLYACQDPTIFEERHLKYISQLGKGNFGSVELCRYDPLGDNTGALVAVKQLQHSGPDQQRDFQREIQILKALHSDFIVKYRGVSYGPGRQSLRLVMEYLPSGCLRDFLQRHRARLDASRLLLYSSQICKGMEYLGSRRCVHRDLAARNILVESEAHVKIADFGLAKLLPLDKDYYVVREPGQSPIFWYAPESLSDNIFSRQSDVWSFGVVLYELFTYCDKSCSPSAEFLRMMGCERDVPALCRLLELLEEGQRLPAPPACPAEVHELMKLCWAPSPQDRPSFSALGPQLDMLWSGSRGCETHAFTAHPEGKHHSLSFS
# Experimental: as §1
# [8] = biological target: PIK3CB (Homo sapiens, UniProt P42338)
# Experimental: as §1
# [9] = biological target: T5, mixed lineage kinase 1 (Homo sapiens, UniProt P80192)
# T5 construct: gene MAP3K9
# Experimental: as §1
# [10] = biological target: CDK2/Cyclin-A (Homo sapiens, UniProt P24941)
# Experimental: as §1
# [11] = biological target: PIK3CD (Homo sapiens, UniProt O00329)
# Experimental: as §1
# [12] = biological target: CSNK1A1 (Homo sapiens, UniProt P48729)
# Experimental: as §1
# [13] = biological target: MAPKAPK2 (Homo sapiens, UniProt P49137)
# Experimental: as §1
# Sequence of ABL1 (P00519 whole entry): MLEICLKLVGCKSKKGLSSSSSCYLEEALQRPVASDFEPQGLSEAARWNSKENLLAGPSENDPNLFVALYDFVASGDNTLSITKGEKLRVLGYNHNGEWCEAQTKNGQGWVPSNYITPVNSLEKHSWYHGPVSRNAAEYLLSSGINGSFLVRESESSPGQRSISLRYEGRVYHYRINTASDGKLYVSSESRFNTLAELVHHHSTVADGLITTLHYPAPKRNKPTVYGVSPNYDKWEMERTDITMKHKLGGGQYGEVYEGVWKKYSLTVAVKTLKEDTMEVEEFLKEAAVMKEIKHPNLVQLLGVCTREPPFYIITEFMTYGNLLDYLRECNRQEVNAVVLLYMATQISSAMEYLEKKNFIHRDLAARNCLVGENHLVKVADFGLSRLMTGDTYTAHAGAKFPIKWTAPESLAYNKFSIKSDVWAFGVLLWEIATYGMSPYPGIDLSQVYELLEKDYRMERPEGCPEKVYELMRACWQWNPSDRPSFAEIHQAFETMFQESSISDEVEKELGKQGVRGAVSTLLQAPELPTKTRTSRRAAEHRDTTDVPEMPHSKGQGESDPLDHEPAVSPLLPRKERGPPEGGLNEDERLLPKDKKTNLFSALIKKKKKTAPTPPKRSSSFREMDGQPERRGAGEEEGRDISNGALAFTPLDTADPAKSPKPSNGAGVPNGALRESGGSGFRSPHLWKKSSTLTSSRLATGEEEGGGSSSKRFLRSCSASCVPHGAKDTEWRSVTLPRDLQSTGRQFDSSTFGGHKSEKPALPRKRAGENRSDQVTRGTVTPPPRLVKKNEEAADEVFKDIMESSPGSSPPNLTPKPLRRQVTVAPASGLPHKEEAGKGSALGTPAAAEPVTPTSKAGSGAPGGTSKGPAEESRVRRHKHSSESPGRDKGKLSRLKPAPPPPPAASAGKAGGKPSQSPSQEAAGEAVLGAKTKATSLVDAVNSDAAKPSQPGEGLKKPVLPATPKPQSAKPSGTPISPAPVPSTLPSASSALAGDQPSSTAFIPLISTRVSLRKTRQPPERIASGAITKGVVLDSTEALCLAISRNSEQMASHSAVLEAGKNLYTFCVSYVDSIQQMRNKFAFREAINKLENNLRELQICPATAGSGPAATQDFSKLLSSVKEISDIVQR
# Sequence of CSNK1A1 (P48729 whole entry): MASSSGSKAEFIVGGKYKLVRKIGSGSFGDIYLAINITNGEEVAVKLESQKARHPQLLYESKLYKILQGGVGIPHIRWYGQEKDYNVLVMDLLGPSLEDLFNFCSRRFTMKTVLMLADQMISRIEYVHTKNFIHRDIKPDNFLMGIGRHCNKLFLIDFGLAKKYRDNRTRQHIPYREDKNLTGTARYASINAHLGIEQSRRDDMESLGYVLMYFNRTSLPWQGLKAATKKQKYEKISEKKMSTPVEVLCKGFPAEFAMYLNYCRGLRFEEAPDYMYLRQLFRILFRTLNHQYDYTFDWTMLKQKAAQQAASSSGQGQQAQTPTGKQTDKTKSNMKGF
# Sequence of MAPKAPK2 (P49137 whole entry): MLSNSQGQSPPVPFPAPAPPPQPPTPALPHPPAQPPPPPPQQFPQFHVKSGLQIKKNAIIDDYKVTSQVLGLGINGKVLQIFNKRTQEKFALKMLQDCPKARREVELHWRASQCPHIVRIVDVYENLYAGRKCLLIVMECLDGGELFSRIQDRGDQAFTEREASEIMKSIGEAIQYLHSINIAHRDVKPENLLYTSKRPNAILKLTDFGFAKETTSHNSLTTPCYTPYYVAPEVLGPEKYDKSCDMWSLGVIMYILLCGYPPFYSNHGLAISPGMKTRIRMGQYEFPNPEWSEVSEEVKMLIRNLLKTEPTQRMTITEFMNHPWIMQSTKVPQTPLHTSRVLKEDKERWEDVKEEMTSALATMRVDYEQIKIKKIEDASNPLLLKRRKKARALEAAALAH
# Sequence of PIK3CB (P42338 whole entry): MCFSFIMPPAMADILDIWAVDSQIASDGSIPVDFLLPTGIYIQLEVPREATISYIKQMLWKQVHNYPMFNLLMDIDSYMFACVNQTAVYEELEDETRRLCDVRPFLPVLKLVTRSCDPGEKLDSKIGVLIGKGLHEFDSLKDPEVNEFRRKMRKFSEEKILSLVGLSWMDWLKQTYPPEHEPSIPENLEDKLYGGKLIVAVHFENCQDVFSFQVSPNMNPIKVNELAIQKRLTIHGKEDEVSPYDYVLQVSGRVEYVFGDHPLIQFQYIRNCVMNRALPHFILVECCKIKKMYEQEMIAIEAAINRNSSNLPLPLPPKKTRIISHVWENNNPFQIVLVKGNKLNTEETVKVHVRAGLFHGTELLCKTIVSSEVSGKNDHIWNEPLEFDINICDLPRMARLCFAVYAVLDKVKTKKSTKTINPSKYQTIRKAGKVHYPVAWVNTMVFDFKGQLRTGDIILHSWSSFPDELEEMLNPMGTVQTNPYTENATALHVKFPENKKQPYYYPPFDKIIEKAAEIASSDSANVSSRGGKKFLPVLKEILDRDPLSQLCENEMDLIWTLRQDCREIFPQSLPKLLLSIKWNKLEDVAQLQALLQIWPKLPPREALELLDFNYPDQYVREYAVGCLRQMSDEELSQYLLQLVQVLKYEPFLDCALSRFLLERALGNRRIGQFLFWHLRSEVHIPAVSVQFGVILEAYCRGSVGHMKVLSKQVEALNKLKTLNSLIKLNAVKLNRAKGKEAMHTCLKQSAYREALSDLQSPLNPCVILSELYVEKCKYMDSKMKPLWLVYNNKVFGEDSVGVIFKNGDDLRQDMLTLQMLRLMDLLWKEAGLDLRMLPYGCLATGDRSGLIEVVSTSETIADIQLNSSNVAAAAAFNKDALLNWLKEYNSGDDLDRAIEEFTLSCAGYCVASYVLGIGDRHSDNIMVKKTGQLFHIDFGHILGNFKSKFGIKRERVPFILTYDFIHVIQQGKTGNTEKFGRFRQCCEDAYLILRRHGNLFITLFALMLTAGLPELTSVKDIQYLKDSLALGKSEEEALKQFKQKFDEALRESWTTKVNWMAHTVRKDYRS
# T2 sequence (Q02750 whole entry): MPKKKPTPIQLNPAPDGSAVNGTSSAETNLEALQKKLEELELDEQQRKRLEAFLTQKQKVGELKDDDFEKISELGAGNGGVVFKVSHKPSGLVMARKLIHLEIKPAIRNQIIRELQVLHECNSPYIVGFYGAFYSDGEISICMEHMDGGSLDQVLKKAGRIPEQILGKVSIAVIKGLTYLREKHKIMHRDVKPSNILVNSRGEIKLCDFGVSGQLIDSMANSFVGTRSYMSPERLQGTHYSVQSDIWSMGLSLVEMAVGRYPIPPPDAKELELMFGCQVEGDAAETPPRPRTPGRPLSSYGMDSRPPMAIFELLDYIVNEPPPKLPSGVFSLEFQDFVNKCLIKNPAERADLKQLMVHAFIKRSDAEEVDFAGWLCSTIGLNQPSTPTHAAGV
# Sequence of PIK3CD (O00329 whole entry): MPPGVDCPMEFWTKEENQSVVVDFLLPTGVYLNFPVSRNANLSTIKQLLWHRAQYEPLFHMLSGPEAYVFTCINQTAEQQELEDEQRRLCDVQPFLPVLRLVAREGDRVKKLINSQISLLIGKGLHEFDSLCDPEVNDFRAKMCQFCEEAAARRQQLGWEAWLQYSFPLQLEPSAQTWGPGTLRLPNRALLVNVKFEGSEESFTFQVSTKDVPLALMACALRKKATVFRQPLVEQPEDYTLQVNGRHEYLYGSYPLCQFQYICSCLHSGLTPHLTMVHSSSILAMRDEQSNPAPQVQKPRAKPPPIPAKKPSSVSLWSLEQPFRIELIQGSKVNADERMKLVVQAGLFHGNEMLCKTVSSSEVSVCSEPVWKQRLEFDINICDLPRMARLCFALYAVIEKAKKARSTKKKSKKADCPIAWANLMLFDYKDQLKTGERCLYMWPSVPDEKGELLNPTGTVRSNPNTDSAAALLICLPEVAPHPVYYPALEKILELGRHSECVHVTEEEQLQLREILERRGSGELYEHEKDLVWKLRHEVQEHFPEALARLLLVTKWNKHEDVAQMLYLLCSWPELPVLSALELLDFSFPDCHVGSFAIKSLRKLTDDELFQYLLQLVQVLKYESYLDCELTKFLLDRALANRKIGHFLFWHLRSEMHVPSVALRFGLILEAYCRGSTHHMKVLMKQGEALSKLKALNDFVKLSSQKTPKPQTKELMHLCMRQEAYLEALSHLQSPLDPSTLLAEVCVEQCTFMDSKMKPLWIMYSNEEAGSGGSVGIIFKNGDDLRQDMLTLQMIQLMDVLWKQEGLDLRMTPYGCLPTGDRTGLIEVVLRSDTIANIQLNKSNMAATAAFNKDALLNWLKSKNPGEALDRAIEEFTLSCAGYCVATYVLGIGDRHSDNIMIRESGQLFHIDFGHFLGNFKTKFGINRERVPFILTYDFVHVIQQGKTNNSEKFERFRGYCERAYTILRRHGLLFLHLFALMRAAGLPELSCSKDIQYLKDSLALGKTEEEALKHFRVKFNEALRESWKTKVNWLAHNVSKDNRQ
# Sequence of MKNK1 (Q9BUB5 whole entry): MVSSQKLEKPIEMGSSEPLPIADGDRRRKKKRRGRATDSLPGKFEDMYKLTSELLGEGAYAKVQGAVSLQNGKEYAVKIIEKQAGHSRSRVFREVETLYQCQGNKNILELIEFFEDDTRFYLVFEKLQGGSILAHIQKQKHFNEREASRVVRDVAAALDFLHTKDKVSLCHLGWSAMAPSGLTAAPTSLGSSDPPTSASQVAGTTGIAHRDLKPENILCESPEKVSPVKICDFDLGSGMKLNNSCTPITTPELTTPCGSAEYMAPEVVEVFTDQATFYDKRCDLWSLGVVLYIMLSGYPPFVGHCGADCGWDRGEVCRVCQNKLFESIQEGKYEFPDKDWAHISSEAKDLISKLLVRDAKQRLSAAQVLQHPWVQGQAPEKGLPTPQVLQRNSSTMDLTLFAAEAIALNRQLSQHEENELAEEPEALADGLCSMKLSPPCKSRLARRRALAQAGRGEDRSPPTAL
smiles,measurement,setting,value
"O=C(O)c1sc2cc(F)sc2c1Cl [PF-07208254, 3-chloro-5-fluorothieno[3,2-b]thiophene-2-carboxylic acid]",ATP = Km % Inhibition PF-07208254,[1],5.0%
same,ATP = 1 mM % Inhibition PF-07208254,[2],-0.5%
same,ATP = Km % Inhibition PF-07208254,[2],9.0%
same,ATP = Km % Inhibition PF-07208254,[3],15.1%
same,ATP = Km % Inhibition PF-07208254,[4],4.8%
same,ATP = 100 uM % Inhibition PF-07208254,[5],4.1%
same,ATP = 1 mM % Inhibition PF-07208254,[6],-3.1%
same,ATP = Km % Inhibition PF-07208254,[6],-3.2%
same,ATP = 1 mM % Inhibition PF-07208254,[7],-4.1%
same,ATP = Km % Inhibition PF-07208254,[7],0.9%
same,ATP = Km % Inhibition PF-07208254,[8],3.1%
same,ATP = Km % Inhibition PF-07208254,[9],3.2%
same,ATP = 1 mM % Inhibition PF-07208254,[10],-1.2%
same,ATP = Km % Inhibition PF-07208254,[10],14.6%
same,ATP = Km % Inhibition PF-07208254,[11],6.4%
same,ATP = 1 mM % Inhibition PF-07208254,[12],-0.6%
same,ATP = Km % Inhibition PF-07208254,[12],9.2%
same,ATP = 1 mM % Inhibition PF-07208254,[13],-1.5%
same,ATP = Km % Inhibition PF-07208254,[13],3.4%
"CCC1(COc2ccc(-c3csc(-c4ccccc4C(=O)O)n3)cn2)CC1 [PF-07247685, 2-(4-{6-[(1-ethylcyclopropyl)methoxy]pyridin-3-yl}-1,3-thiazol-2-yl)benzoic acid]",ATP = Km % Inhibition PF-07247685,[1],2.1%
same,ATP = 1 mM % Inhibition PF-07247685,[2],0.9%
same,ATP = Km % Inhibition PF-07247685,[2],5.1%
same,ATP = Km % Inhibition PF-07247685,[3],0.5%
same,ATP = Km % Inhibition PF-07247685,[4],-0.0%
same,ATP = 100 uM % Inhibition PF-07247685,[5],11.2%
same,ATP = 1 mM % Inhibition PF-07247685,[6],2.0%
same,ATP = Km % Inhibition PF-07247685,[6],-0.6%
same,ATP = 1 mM % Inhibition PF-07247685,[7],-0.0%
same,ATP = Km % Inhibition PF-07247685,[7],0.8%
same,ATP = Km % Inhibition PF-07247685,[8],-3.5%
same,ATP = Km % Inhibition PF-07247685,[9],6.3%
same,ATP = 1 mM % Inhibition PF-07247685,[10],-1.4%
same,ATP = Km % Inhibition PF-07247685,[10],1.2%
same,ATP = Km % Inhibition PF-07247685,[11],-7.0%
same,ATP = 1 mM % Inhibition PF-07247685,[12],2.1%
same,ATP = Km % Inhibition PF-07247685,[12],3.1%
same,ATP = 1 mM % Inhibition PF-07247685,[13],3.3%
same,ATP = Km % Inhibition PF-07247685,[13],2.2%
